Among the data in patent US20250231185A1, “Coronavirus T Cell Epitopes, Megapools and Uses Thereof” (La Jolla Institute for Immunology, priority 2021, published 2025) are Dominant values, retold here.

The test system of the first assay is CD8+ T cells. Briefly: Meta-analysis of published SARS-CoV-2 CD8 T cell epitope data curated in the IEDB (25 studies). The note with it: CD8-restricted SARS-CoV-2 epitopes; Yes = recognized by 3 or more donors/different studies. Type of assay: cell-based, human.
Take 1104 (MDLFMRIFTI) [compound 1104]: the Dominant entry was “Yes (more dominant epitopes are defined by being recognized by 3 or more donors/different studies)”.

On to 1105 (RIFTIGTVTLK) [compound 1105], for which the Dominant result is “Yes (more dominant epitopes are defined by being recognized by 3 or more donors/different studies)”.

As for 1107 (FVRATATIPI) [compound 1107], the Dominant result is “Yes (more dominant epitopes are defined by being recognized by 3 or more donors/different studies)”.

Turning to 1109 (IPIQASLPF) [compound 1109], the Dominant result is “Yes (more dominant epitopes are defined by being recognized by 3 or more donors/different studies)”.

In the case of 1111 (IVGVALLAVF) [compound 1111], the Dominant result is reported as “Yes (more dominant epitopes are defined by being recognized by 3 or more donors/different studies)”.

For the substance 1117 (ITLKKRWQLAL) [compound 1117], the Dominant entry is given as “Yes (more dominant epitopes are defined by being recognized by 3 or more donors/different studies)”.

Consider 1119 (ALSKGVHFV) [compound 1119], for which the Dominant entry is “Yes (more dominant epitopes are defined by being recognized by 3 or more donors/different studies)”.

For the substance 1132 (YLYALVYFL) [compound 1132], the Dominant result was “Yes (more dominant epitopes are defined by being recognized by 3 or more donors/different studies)”.

With 1133 (VYFLQSINF) [compound 1133], the Dominant result is on record as “Yes (more dominant epitopes are defined by being recognized by 3 or more donors/different studies)”.

Take 1140 (LLYDANYFL) [compound 1140]: the Dominant result was “Yes (more dominant epitopes are defined by being recognized by 3 or more donors/different studies)”.

As to 1150 (FTSDYYQLY) [compound 1150], the Dominant result is recorded as “Yes (more dominant epitopes are defined by being recognized by 3 or more donors/different studies)”.

1152 (YYQLYSTQL) [compound 1152]: the Dominant result is “Yes (more dominant epitopes are defined by being recognized by 3 or more donors/different studies)”.

As for 1157 (HLVDFQVTI) [compound 1157], the Dominant result was “Yes (more dominant epitopes are defined by being recognized by 3 or more donors/different studies)”.

As to 1173 (QLRARSVSPK) [compound 1173], the Dominant result is “Yes (more dominant epitopes are defined by being recognized by 3 or more donors/different studies)”.

1174 (RARSVSPKL) [compound 1174]: the Dominant entry is listed as “Yes (more dominant epitopes are defined by being recognized by 3 or more donors/different studies)”.

1176 (KLFIRQEEV) [compound 1176]: the Dominant result is given as “Yes (more dominant epitopes are defined by being recognized by 3 or more donors/different studies)”.

As to 1178 (VQELYSPIFLIV) [compound 1178], the Dominant result is given as “Yes (more dominant epitopes are defined by being recognized by 3 or more donors/different studies)”.

1180 (VFITLCFTLK) [compound 1180]: the Dominant result is “Yes (more dominant epitopes are defined by being recognized by 3 or more donors/different studies)”.

With 1181 (IMLIIFWFSL) [compound 1181], the Dominant entry was “Yes (more dominant epitopes are defined by being recognized by 3 or more donors/different studies)”.

Take 1187 (IQYIDIGNY) [compound 1187]: the Dominant entry is reported as “Yes (more dominant epitopes are defined by being recognized by 3 or more donors/different studies)”.

For the substance 1190 (KLGSLVVRC) [compound 1190], the Dominant result is reported as “Yes (more dominant epitopes are defined by being recognized by 3 or more donors/different studies)”.

For the substance 1192 (LEYHDVRVVL) [compound 1192], the Dominant entry is “Yes (more dominant epitopes are defined by being recognized by 3 or more donors/different studies)”.

With 1204 (YTNSFTRGVY) [compound 1204], the Dominant result was “Yes (more dominant epitopes are defined by being recognized by 3 or more donors/different studies)”.

For 1212 (STQDLFLPFF) [compound 1212], the Dominant entry is given as “Yes (more dominant epitopes are defined by being recognized by 3 or more donors/different studies)”.

On to 1220 (RFDNPVLPF) [compound 1220], for which the Dominant result is reported as “Yes (more dominant epitopes are defined by being recognized by 3 or more donors/different studies)”.

For the substance 1225 (GVYFASTEK) [compound 1225], the Dominant result is recorded as “Yes (more dominant epitopes are defined by being recognized by 3 or more donors/different studies)”.

For the substance 1226 (TEKSNIIRGW) [compound 1226], the Dominant entry is listed as “Yes (more dominant epitopes are defined by being recognized by 3 or more donors/different studies)”.

Turning to 1228 (TLDSKTQSL) [compound 1228], the Dominant result is reported as “Yes (more dominant epitopes are defined by being recognized by 3 or more donors/different studies)”.

Turning to 1229 (FCNDPFLGVYY) [compound 1229], the Dominant entry is “Yes (more dominant epitopes are defined by being recognized by 3 or more donors/different studies)”.

Regarding 1233 (KSWMESEFRVY) [compound 1233], the Dominant result is reported as “Yes (more dominant epitopes are defined by being recognized by 3 or more donors/different studies)”.

Regarding 1238 (SSANNCTFEY) [compound 1238], the Dominant entry was “Yes (more dominant epitopes are defined by being recognized by 3 or more donors/different studies)”.

Turning to 1245 (FVFKNIDGY) [compound 1245], the Dominant entry is “Yes (more dominant epitopes are defined by being recognized by 3 or more donors/different studies)”.

1248 (IYSKHTPINL) [compound 1248]: the Dominant entry was “Yes (more dominant epitopes are defined by being recognized by 3 or more donors/different studies)”.

Consider 1249 (TPINLVRDL) [compound 1249], for which the Dominant entry is “Yes (more dominant epitopes are defined by being recognized by 3 or more donors/different studies)”.

Turning to 1251 (LPQGFSAL) [compound 1251], the Dominant result is recorded as “Yes (more dominant epitopes are defined by being recognized by 3 or more donors/different studies)”.

With 1258 (LLALHRSYL) [compound 1258], the Dominant entry is on record as “Yes (more dominant epitopes are defined by being recognized by 3 or more donors/different studies)”.

As to 1259 (WTAGAAAYY) [compound 1259], the Dominant result is “Yes (more dominant epitopes are defined by being recognized by 3 or more donors/different studies)”.

With 1260 (WTAGAAAYYVGY) [compound 1260], the Dominant entry is reported as “Yes (more dominant epitopes are defined by being recognized by 3 or more donors/different studies)”.

Consider 1263 (YYVGYLQPRTF) [compound 1263], for which the Dominant entry is reported as “Yes (more dominant epitopes are defined by being recognized by 3 or more donors/different studies)”.

As to 1266 (YLQPRTFLL) [compound 1266], the Dominant result was “Yes (more dominant epitopes are defined by being recognized by 3 or more donors/different studies)”.

As to 1286 (RISNCVADY) [compound 1286], the Dominant entry was “Yes (more dominant epitopes are defined by being recognized by 3 or more donors/different studies)”.

Staying with this assay, now noted: SARS-CoV-2-derived CD8 epitopes; dominant = recognized by 3 or more donors/different studies.
Consider 816 (SLRPDTRYVL) [compound 816], for which the Dominant entry is “Yes (more dominant epitopes are defined by being recognized by 3 or more donors/different studies)”.

Take 818 (RPDTRYVL) [compound 818]: the Dominant result is given as “Yes (more dominant epitopes are defined by being recognized by 3 or more donors/different studies)”.

Take 833 (TFYLTNDVSFL) [compound 833]: the Dominant result is “Yes (more dominant epitopes are defined by being recognized by 3 or more donors/different studies)”.

841 (FLLNKEMYL) [compound 841]: the Dominant result is listed as “Yes (more dominant epitopes are defined by being recognized by 3 or more donors/different studies)”.

With 848 (TSEDMLNPNY) [compound 848], the Dominant entry is “Yes (more dominant epitopes are defined by being recognized by 3 or more donors/different studies)”.

In the case of 851 (TPKYKFVRI) [compound 851], the Dominant result was “Yes (more dominant epitopes are defined by being recognized by 3 or more donors/different studies)”.

Consider 852 (VRIQPGQTF) [compound 852], for which the Dominant result is listed as “Yes (more dominant epitopes are defined by being recognized by 3 or more donors/different studies)”.

Consider 856 (FLNGSCGSV) [compound 856], for which the Dominant result is on record as “Yes (more dominant epitopes are defined by being recognized by 3 or more donors/different studies)”.

Consider 858 (GTDLEGNFY) [compound 858], for which the Dominant entry is given as “Yes (more dominant epitopes are defined by being recognized by 3 or more donors/different studies)”.

Turning to 860 (VLAWLYAAV) [compound 860], the Dominant result is recorded as “Yes (more dominant epitopes are defined by being recognized by 3 or more donors/different studies)”.

With 861 (FLNRFTTTL) [compound 861], the Dominant result is “Yes (more dominant epitopes are defined by being recognized by 3 or more donors/different studies)”.

Take 866 (SAFAMMFVK) [compound 866]: the Dominant entry is “Yes (more dominant epitopes are defined by being recognized by 3 or more donors/different studies)”.

In the case of 872 (FLLPSLATV) [compound 872], the Dominant result is given as “Yes (more dominant epitopes are defined by being recognized by 3 or more donors/different studies)”.

Take 874 (MPASWVMRI) [compound 874]: the Dominant result was “Yes (more dominant epitopes are defined by being recognized by 3 or more donors/different studies)”.

For the substance 877 (KLKDCVMYA) [compound 877], the Dominant entry is on record as “Yes (more dominant epitopes are defined by being recognized by 3 or more donors/different studies)”.

Consider 882 (SMWALIISV) [compound 882], for which the Dominant entry is on record as “Yes (more dominant epitopes are defined by being recognized by 3 or more donors/different studies)”.

As for 883 (NYSGVVTTVMF) [compound 883], the Dominant result was “Yes (more dominant epitopes are defined by being recognized by 3 or more donors/different studies)”.

For 887 (TLGVYDYLVST) [compound 887], the Dominant result is “Yes (more dominant epitopes are defined by being recognized by 3 or more donors/different studies)”.

On to 896 (SEFSSLPSY) [compound 896], for which the Dominant result is “Yes (more dominant epitopes are defined by being recognized by 3 or more donors/different studies)”.
